Converted amounts (≈) assume the structure as drawn. Structures can show the parent of a compound that is named as a salt. Where two headings read alike, the source gives them in different places.
System: Pityrosporum ovale
Test: MIC and PI determination on Abbe's medium agar slants, dilution series
Format: cell-based
Settings: Malassezia furfur, 28° C.
Method: Pityrosporum ovale was cultured and the MIC determinations were carried out with a large number of azole derivatives. The growth of Pityrosporum ovale is considerably slower than, for example, of species of Candida or Torulopsis--it takes 3 to 5 days. It requires Abbe's medium as a special nutrient medium.
1. Setting up the dilution series of each preparation: 6.4 mg of preparation are dissolved in 1 ml of analytical grade dimethylformamide and 9 ml of distilled water are added. 1 ml now contains 640 mcg of preparation. If 2 ml are withdrawn and added to 2 ml of H2 O, the resulting concentration is 320 mcg/ml. If this is continued progressively,the following dilution series, in mcg/ml, is obtained: 640-320-160-80-40-20-10-5-2.5-1.25-0.625-0.313-0.156-0.078-0.039-0.02-0.01
2. Charging the test tubes: 0.5 ml portions of the particular dilution are introduced into test tubes.
3. Charging with nutrient medium: Abbe's medium is used.
200 ml portions of Abbe's medium are introduced into nutrient medium flasks. For use, the previously calculated amount of Abbe's medium is liquefied in a steaming pot and cooled until only warm to the touch; 4.5 ml are then added to each test tube. A second person receives each test tube and twirls it between his hands, like a kitchen whisk. This achieves good mixing of the diluted preparation with the nutrient medium. Each test tube is then immediately brought into a slanting position, in the same way as is usually employed to prepare agar slants.
The culture control and the nutrient medium control are each 1 test tube in which 0.5 ml of H2 O is introduced in place of the preparation.
4. Inoculation with Pityrosporum ovale: A culture which had been grown for 3 weeks in Benham's fluid medium at 28° C. was used.
After the nutrient medium has solidified thoroughly in all the test tubes, 0.1 ml of culture is allowed to run over each slant, except for the test tube of the nutrient medium control. 0.1 ml of physiological NaCl solution is added to the latter.
5. Incubation and readings: The incubation is carried out at 28° C. After 3 days, the culture control test tubes show germ growth, which reaches an optimum after 5 days.
The MIC=minimum inhibitory concentration, and the PI=partial inhibition (retardation of growth by about 90% relative to the control, that is to say only about 10% of the germs have grown) are read off in comparison to the control.
Of course,--as is usual in microbiology--all the work was carried out under sterile conditions, that is to say, using, for example, sterile test tubes, pipettes, nutrient media and the like.

[1] = 72 h, reading after 3 days, read-out: MIC (minimum inhibitory concentration), reading after 3 days
[2] = 120 h, reading after 5 days, read-out: MIC (minimum inhibitory concentration), reading after 5 days
[3] = 72 h, reading after 3 days, read-out: PI (partial inhibition, growth reduced by at least 90% compared to the control), reading after 3 days
[4] = 120 h, reading after 5 days, read-out: PI (partial inhibition, growth reduced by at least 90% compared to the control), reading after 5 days

SMILES	MIC [1]	MIC [2]	IC90 [3]	IC90 [4]
CC(C)(C)C(=O)C(Oc1ccc(Cl)cc1)n1ccnc1 (stereo not drawn) [Example 1, [1-imidazolyl-(1)]-[1-(4'-chloro)phenoxy]-3-dimethyl-butane-2-one]	< 1 µg/mL	< 1 µg/mL		
CC(C)(C)C(=O)C(Oc1ccc(Cl)cc1Cl)n1ccnc1 (stereo not drawn) [Example 2]	< 1 µg/mL	< 1 µg/mL		
CC(C)(C)C(=O)C(Oc1ccc(Br)cc1)n1ccnc1 (stereo not drawn) [Example 3]	< 1 µg/mL	< 1 µg/mL		
CC(C)(C)C(=O)C(Oc1ccc(-c2ccc(Cl)cc2)cc1)n1ccnc1 (stereo not drawn) [Example 4, [1-imidazolyl-(1)]-[1-(4'-(4"-chlorophenyl)-phenoxy]-3,3-dimethyl-butan-2-one hydrochloride]	< 1 µg/mL	< 1 µg/mL		
CC(C)(C)C(=O)C(Cn1ccnc1)Oc1ccc(Cl)cc1Cl (stereo not drawn) [Example 5, hydrochloride]	2 µg/mL	2 µg/mL	< 1 µg/mL	< 1 µg/mL
CC(C)(C)C(O)C(Oc1ccc(-c2ccccc2)cc1)n1ccnc1 (stereo not drawn) [Example 7]	4 µg/mL (≈ 11.9 µM)	8 µg/mL (≈ 23.8 µM)	2 µg/mL (≈ 5.94 µM)	2 µg/mL (≈ 5.94 µM)
CC(C)(C)C(=O)C(Cn1ccnc1)Oc1ccc(Cl)cc1 (stereo not drawn) [Example 8]	4 µg/mL (≈ 13 µM)	8 µg/mL (≈ 26.1 µM)	2 µg/mL (≈ 6.52 µM)	4 µg/mL (≈ 13 µM)
Cc1ccccc1C1(n2ccnc2)c2ccccc2-c2ccccc21 [Example 9]	8 µg/mL (≈ 24.8 µM)	8 µg/mL (≈ 24.8 µM)	2 µg/mL (≈ 6.2 µM)	4 µg/mL (≈ 12.4 µM)
C#CC(c1ccccc1)(c1ccccc1)n1ccnc1 [Example 10]	8 µg/mL (≈ 31 µM)	16 µg/mL (≈ 61.9 µM)	< 1 µg/mL	< 1 µg/mL
COC(=O)C(c1ccccc1)(c1ccccc1)n1ccnc1 [Example 11]	16 µg/mL (≈ 54.7 µM)	16 µg/mL (≈ 54.7 µM)	< 1 µg/mL	< 1 µg/mL
CC(C)(C)C(=O)C(Cn1ccnc1)Oc1ccc(-c2ccccc2)cc1 (stereo not drawn) [Example 12]	8 µg/mL (≈ 23 µM)	8 µg/mL (≈ 23 µM)	< 1 µg/mL	< 1 µg/mL
Clc1ccccc1C(c1ccccc1)(c1ccccc1)n1ccnc1 [Example 13]	16 µg/mL (≈ 46.4 µM)	16 µg/mL (≈ 46.4 µM)	8 µg/mL (≈ 23.2 µM)	8 µg/mL (≈ 23.2 µM)
CCC(c1ccccc1)(c1ccccc1)n1ccnc1 [Example 14]	32 µg/mL (≈ 122 µM)	32 µg/mL (≈ 122 µM)	4 µg/mL (≈ 15.2 µM)	4 µg/mL (≈ 15.2 µM)
CC(=O)C(c1ccccc1)(c1ccccc1)n1ccnc1 [Example 15]	32 µg/mL (≈ 116 µM)	64 µg/mL (≈ 232 µM)	4 µg/mL (≈ 14.5 µM)	4 µg/mL (≈ 14.5 µM)
Clc1ccc(C(c2ccccc2)(c2ccccc2)n2ccnc2)cc1 [Example 16]	> 64 µg/mL	> 64 µg/mL	16 µg/mL (≈ 46.4 µM)	16 µg/mL (≈ 46.4 µM)
Clc1cccc(C(c2ccccc2)(n2ccnc2)n2ccnc2)c1 [Example 17]	> 64 µg/mL	> 64 µg/mL	32 µg/mL (≈ 95.6 µM)	32 µg/mL (≈ 95.6 µM)
CC1(n2ccnc2)c2ccccc2CCc2ccccc21 [Example 18]	> 64 µg/mL	> 64 µg/mL	32 µg/mL (≈ 117 µM)	32 µg/mL (≈ 117 µM)
CC(C)(C)C(O)C(Oc1ccc(Cl)cc1Cl)(c1ccccc1)n1ccnc1 (stereo not drawn) [Example 19]	> 64 µg/mL	> 64 µg/mL	64 µg/mL (≈ 158 µM)	64 µg/mL (≈ 158 µM)
Brc1cccc(C(c2ccccc2)(n2ccnc2)n2ccnc2)c1 [Example 20]	> 64 µg/mL	> 64 µg/mL	64 µg/mL (≈ 169 µM)	64 µg/mL (≈ 169 µM)
Cn1ccnc1C(c1ccccc1)(c1ccc(-c2ccccc2)cc1)n1ccnc1 (stereo not drawn) [Example 21]	> 64 µg/mL	> 64 µg/mL		
Brc1cccc(C(c2ccccc2)(n2cncn2)n2cncn2)c1 [Example 22]	> 64 µg/mL	> 64 µg/mL		

— patent US4472421A, “Azole antimycotics and their use in treating skin conditions caused by Pityrosporum ovale” (Bayer Aktiengesellschaft, priority 1974, dated 1984)
